Columns and labels:
[1] = tested on: gelatinase A and B in the CSF from animals with EAE; assay: In vitro inhibition of gelatinase activity in CSF (SDS/PAGE zymography); format: biochemical, mice
Procedure: In vitro inhibition of gelatinase activity. Gelatinase activity in a pooled CSF sample from animals with clinical signs of EAE (grade 2-3 for 4-5 d) was determined by SDS/PAGE zymography. CSF was applied without prior denaturation to a single-well 7.5% (wt/vol) polyacrylamide gel containing 0.1% (wt/vol) SDS to which 0.1% (wt/vol) tissue culture grade gelatin (Sigma Chemical Co., St. Louis, Mo.) was added and copolymerized. […] The gel (7 cm×10 cm×0.75 mm) was run for approximately 2 h at 20 mA. After electrophoresis the gel was washed (washing buffer: 50 mM Tris-HCL, 10 mM CaCl2, 0.02% (wt/vol) NaN3, 2.5% (vol/vol) Triton X-100, pH 7.5) to remove the SDS and sliced into strips. The resulting strips were incubated separately at 37° C. during 24 h (same buffer as for the washing, containing only 1% [vol/vol] Triton X-100) for development of the enzyme activity, stained with Coomassie brilliant blue R-250 and destained in methanol/acetic acid. Gelatinase activity was detected as unstained bands on a blue background. To assess the effect of protease inhibitors on the gelatinase activity present in the CSF, metalloprotease inhibitors (dissolved in DMSO) were added to the incubation buffer. GM 6001 was used at final concentrations from 0.1 to 33 μM; 1,10-phenanthroline (Sigma Chemical Co.) was used as a positive control at 2.5 mM, and the noninhibitor lane was incubated in 0.5% (vol/vol) DMSO.

EAE in SJL/J mice [2] = assay: Histopathology of brain and spinal cord (inflammation, demyelination); format: in vivo; details: for Demyelination Brain + SC / Inflammation Brain / Inflammation Spinal Cord: 1 × 1.33 mg/d i.p.; for Demyelination Brain + SC: demyelination score; for Inflammation Brain / Inflammation Spinal Cord: total inflammatory score
Procedure: Sections were stained with hematoxylin and eosin, Kluver-Barrera and Giemsa stain. Histopathology was assessed as follows. Individual inflammatory lesions were scored as 1=perivascular inflammatory cuff≤three cells thick, 2=>three cells thick. 3=parenchymal infiltrate. The total inflammatory score was then calculated by adding all the scores for individual lesions from all the sections for a given sample. The demyelination score was calculated the same way as inflammatory score, with 1=demyelinated rim around infiltrate, 2=demyelination extending into noninfiltrated tissue.

[3] = In vivo inhibitor kinetics (GM 6001 concentration in CSF); set-up: species or system mice; details: for concentration at 3 h: for at least 3 h
Procedure: In vivo inhibitor kinetics. Normal noninduced animals or animals with clinical signs of EAE for 2 d were given a single intraperitoneal injection of 4 mg GM 6001 and euthanized by CO2 inhalation after various time intervals. CSF was taken by suboccipital puncture. Pooled CSF from five animals per time point was frozen immediately at -70° C. GM 6001 concentrations were determined by reversed-phase HPLC by Bay Bioanalytical Laboratories, Richmond, Calif. was diluted into 20% acetonitrile in water and chromatographed on a C-18 reversed-phase column with fluorescence detection. Linearity was determined by spiking blank CSF with increasing amounts of GM 6001. The amount of GM 6001 in CSF samples was calculated based on recovery of GM 6001 and the internal standard in spiked samples. The lower limit for quantification of GM 6001 in the CSF samples was 60 ng/rnl.

EAE in SJL/J mice [4] = assay: Clinical scoring of EAE; format: in vivo; set-up: key to Change in average cumulative score During treatment / Change in average cumulative score After treatment: change in cumulative EAE grade; 0 = no signs, 5 = death
Procedure: EAE induction, Female SJL/J mice (Jackson Laboratory, Bar Harbor, Me.) were used at 5-7 week of age. […] PLP peptide 139-151 was prepared by continuous flow solid phase synthesis according to the sequence (SEQ ID NO 1 ) HCLGKWLGHPDKF by the Protein and Nucleic Acid Facility, Beckman Center, Stanford, Calif. Peptide purity was examined by HPLC analysis and peptide identity was confirmed by amino-acid composition analysis.
EAE was scored clinically as follows: no neurological signs=grade 0, weak tail=grade 1, wobbly walk or limb paresis=grade 2, limb paralysis=grade 3, inability to move=grade 4, death=grade 5. Easy access to food and water was provided and animals with grade 3 or 4 received daily parenteral fluid.
[…] The same volume of vehicle was used as a control treatment. Animals were treated daily either from the day of disease induction for 20 d or from the onset of clinical signs for 10 d (randomized for the different treatment groups).

gelatinase B = details: cited from earlier work
EAE in SJL/J mice [5] = assay: Blood-brain barrier permeability (Evans blue); format: in vivo
Procedure: Mice were injected intravenously with 1% (wt/vol) Evans blue (Fisher Scientific Co., Fair Lawn, N.J.) in PBS at a dosage of 4 μl/g body weight. After 1 h the animals were euthanized by CO2 inhalation and perfused with PBS via the left ventricle. Brain and spinal cord were dissected and cut longitudinally. Half of the CNS was used for histopathological evaluation. The other half was weighed and tissue samples were then extracted for 3 d in formamide (5 μl/mg tissue) and the extracts centrifuged for 5 min at 500 g. Evans blue concentration in the extracts was determined by measuring the absorbance at 650 nm. The blood-brain barrier permeability index was calculated by dividing the value for each sample by the corresponding (brain or spinal cord) mean value of four normal noninduced animals.

[6] = 3 days of treatment from onset of clinical signs
[7] = 10 days of treatment from onset of clinical signs
[8] = animals with EAE, single intraperitoneal dose of 4 mg
[9] = Experiment 1, from disease induction for 20 d, 2X/d 2.00 mg i.p.
[10] = Experiment 1, from onset of clinical signs for 10 d, 2X/d 2.00 mg i.p.
[11] = Experiment 2, from disease induction for 20 d, 1X/d 0.13 mg i.p.
[12] = Experiment 2, from disease induction for 20 d, 1X/d 0.40 mg i.p.
[13] = Experiment 2, from disease induction for 20 d, 1X/d 1.33 mg i.p.
[14] = Experiment 2, from disease induction for 20 d, 1X/d 4.00 mg i.p.
[15] = Experiment 2, from onset of clinical signs for 10 d, 1X/d 0.13 mg i.p.
[16] = Experiment 2, from onset of clinical signs for 10 d, 1X/d 0.40 mg i.p.
[17] = Experiment 2, from onset of clinical signs for 10 d, 1X/d 1.33 mg i.p.
[18] = Experiment 2, from onset of clinical signs for 10 d, 1X/d 4.00 mg i.p.

SMILES: CNC(=O)[C@H](Cc1c[nH]c2ccccc12)NC(=O)[C@@H](CC(=O)NO)CC(C)C [GM 6001, N-[2(R)-2-(hydroxamidocarbonylmethyl)-4-methylpentanoyl]-L-tryptophan methylamide]
- inhibition of gelatinase A compared with gelatinase B in CSF ([1]; CSF from animals with EAE): equally well inhibited
- inhibition of gelatinase activity in CSF ([1]; GM 6001 at 1 μM to 33 μM, pooled CSF from animals with EAE, zymography): completely inhibited all gelatinase activity
- inhibition of gelatinase activity in CSF ([1]; GM 6001 at 0.1 and 0.33 μM, pooled CSF from animals with EAE, zymography): partial inhibition
- Demyelination Brain + SC (EAE in SJL/J mice [2]; [6]): 3.7 ± 0.88
- Inflammation Brain (EAE in SJL/J mice [2]; [6]): 31.7 ± 5.17
- Inflammation Spinal Cord (EAE in SJL/J mice [2]; [6]): 14.7 ± 1.67
- Demyelination Brain + SC (EAE in SJL/J mice [2]; [7]): 2.3 ± 0.63
- Inflammation Brain (EAE in SJL/J mice [2]; [7]): 21.0 ± 3.14
- Inflammation Spinal Cord (EAE in SJL/J mice [2]; [7]): 15.0 ± 3.24
- inflammatory and demyelination scores compared with vehicle (EAE in SJL/J mice [2]; after 3 and 10 d of treatment, 1×1.33 mg/d from onset, differences not statistically significant): lower after 3 and 10 d of treatment with GM 6001 in all but one group
- duration of detectable levels in the CSF [3, 8]: at least 4 h
- time after injection at which detectable levels in the CSF start [3, 8]: 30 min
- concentration at 8 h ([3]; mouse, csf, ip, animals with EAE, single i.p. dose of 4 mg, after 8 hours): 100 ng/mL
- concentration at 16 h ([3]; mouse, csf, ip, animals with EAE, single i.p. dose of 4 mg, after 16 hours): < 60 ng/mL
- concentration at 3 h ([3]; mouse, csf, ip, animals with EAE, single i.p. dose of 4 mg): 100 to 200 ng/mL
- concentration at 3 h ([3]; mouse, csf, ip, animals with EAE, single i.p. dose of 4 mg, converted from ng/ml): 250 to 500 nM
- concentration in the CSF ([3]; normal noninduced animals, single i.p. dose of 4 mg): never rose above the detection limit
- efficacy at low dose when given from disease induction (EAE in SJL/J mice [4]; 0.13 mg/d once daily, P<0.05 (4 and 1.33 mg/d P<0.005)): still effective
- efficacy of single daily dose compared with 2×2 mg/d (EAE in SJL/J mice [4]; 4 mg/d once daily i.p., both treatment schedules): comparable efficacy
- Change in average cumulative score After treatment (EAE in SJL/J mice [4]; [9]): 9.9 ± 2.17
- Change in average cumulative score During treatment (EAE in SJL/J mice [4]; [9]): 7.0 ± 2.57
- Change in average cumulative score After treatment (EAE in SJL/J mice [4]; [10]): -7.2 ± 2.69
- Change in average cumulative score During treatment (EAE in SJL/J mice [4]; [10]): -6.5 ± 2.08
- Change in average cumulative score After treatment (EAE in SJL/J mice [4]; [11]): 18.0 ± 9.82
- Change in average cumulative score During treatment (EAE in SJL/J mice [4]; [11]): 7.7 ± 3.09
- Change in average cumulative score After treatment (EAE in SJL/J mice [4]; [12]): 23.9 ± 4.96
- Change in average cumulative score During treatment (EAE in SJL/J mice [4]; [12]): 11.3 ± 0.94
- Change in average cumulative score After treatment (EAE in SJL/J mice [4]; [13]): 12.0 ± 3.83
- Change in average cumulative score During treatment (EAE in SJL/J mice [4]; [13]): 3.4 ± 1.77
- Change in average cumulative score After treatment (EAE in SJL/J mice [4]; [14]): 22.2 ± 4.61
- Change in average cumulative score During treatment (EAE in SJL/J mice [4]; [14]): 2.4 ± 1.16
- Change in average cumulative score After treatment (EAE in SJL/J mice [4]; [15]): -10.6 ± 5.67
- Change in average cumulative score During treatment (EAE in SJL/J mice [4]; [15]): 2.0 ± 1.92
- Change in average cumulative score After treatment (EAE in SJL/J mice [4]; [16]): -7.9 ± 4.44
- Change in average cumulative score During treatment (EAE in SJL/J mice [4]; [16]): -0.3 ± 2.03
- Change in average cumulative score After treatment (EAE in SJL/J mice [4]; [17]): -15.0 ± 5.79
- Change in average cumulative score During treatment (EAE in SJL/J mice [4]; [17]): -4.1 ± 1.81
- Change in average cumulative score After treatment (EAE in SJL/J mice [4]; [18]): -7.1 ± 7.86
- Change in average cumulative score During treatment (EAE in SJL/J mice [4]; [18]): -4.3 ± 2.69
- clinical severity of the disease compared with the vehicle-treated group (EAE in SJL/J mice [4]; FIG. 1, from disease induction for 20 d, 2×2 mg/d i.p., 10 animals per group): significantly reduced
- disease score, treatment of clinical relapse (EAE in SJL/J mice [4]; FIG. 3, 1×4 mg/d for 10 days from onset of clinical relapse, nine animals): statistically significant difference
- recovery from the drop in body weight associated with the onset of EAE (EAE in SJL/J mice [4]; experiment 2): recovered faster
- clinical scores after start of treatment (EAE in SJL/J mice [4]; from onset of clinical signs for 10 d, 2×2 mg/d, P<0.005 vs vehicle up to two days after treatment): decreased the day after the start of treatment
- animals returned to score 0 (clinically normal) within 12 d following the onset of clinical signs (EAE in SJL/J mice [4]; from onset of clinical signs for 10 d, 2×2 mg/d, vehicle 3 out of 10): 8 out of 10
- animals that returned to score 0 and had a clinical disease relapse during the follow-up period (EAE in SJL/J mice [4]; of the 8 recovered animals, 2×2 mg/d from onset for 10 d, vehicle all 3): 7 animals
- reduction of disease severity when treated from disease onset (EAE in SJL/J mice [4]; once daily 4, 1.33, 0.40, 0.13 mg/d, P<0.05, FIG. 2): only 4 and 1.33 mg/d were significantly effective
- Ki (gelatinase B): 0.2 nM
- Blood Brain Barrier Index Spinal Cord (EAE in SJL/J mice [5]; 3 days of treatment from onset of clinical signs, 1 × 1.33 mg/d i.p.): 0.7 ± 0.12
- Blood Brain Barrier Index Brain (EAE in SJL/J mice [5]; 3 days of treatment from onset of clinical signs, 1 × 1.33 mg/d i.p., ratio of permeability for Evan's blue): 1.1 ± 0.16
- Blood Brain Barrier Index Spinal Cord (EAE in SJL/J mice [5]; 10 days of treatment from onset of clinical signs, 1 × 1.33 mg/d i.p.): 1.1 ± 0.11
- blood-brain barrier index (EAE in SJL/J mice [5]; after 10 d of disease, 1×1.33 mg/d from onset, vehicle significantly elevated, P<0.05): normal

SMILES: c1cnc2c(c1)ccc1cccnc12 [phenanthroline, 1,10-phenanthroline, reference compound]
- inhibition of gelatinase activity in CSF ([1]; phenanthroline 2.5 mM, positive control): served as an inhibitory control
